Consider four molecules from patent US8895504B2, “Amylin derivatives” (priority 2008, dated 2014).

Structures are written as SMILES. *1 amine or outer side, *2 acyl side, *3 side chain or, on linkers, in order; H or OH if unused. Where a SMILES comes first, the peptide text is derived from it. Bridges are numbered along the chain shown (N, C = ends). The star is where a group is joined. C20 diacid = O=C(O)CCCCCCCCCCCCCCCCCCC(=O)*; γGlu = O=C(O)[C@H](CCC(=O)[*:2])N[*:1]; AEEA = NCCOCCOCC(=O)O

The nature of series [1]: Assay (V) PK - determination of T½ in mini-pig. Type of series: in vivo. As to conditions: minipig, sc; terminal plasma half-life, subcutaneous, approx 2 nmol/kg, male Göttingen mini-pigs. How it is done:
Assay (V) PK—Determination OF T½ in Mini-Pig
T½ is the terminal half-life=ln 2/λz of a compound in plasma. λz is the first order rate constant associated with the terminal (log-linear) portion of the plasma concentration-time curve and is estimated by linear regression of time vs. log concentration.
T½ values of the amylin analogues of the invention is determined by pharmacokinetic studies in male Göttingen mini-pigs from Ellegaard Göttingen Minipigs ApS and the principles of laboratory animal care are followed.
An acclimatization period of approximately 6-10 days was allowed before the animals entered the study. At start of the acclimatization period the mini-pigs were about 5 to 12 months old and in the weight range of 7-35 kg. The mini-pigs had two central venous catheters inserted which were used for blood sampling.
The studies were conducted in an animal room which was illuminated to give a cycle of approx 12 hours light and 12 hours darkness. The animals were housed individually.
The animals had free access to domestic quality drinking water during the study, but were typically fasted from overnight before dosing until approx 6-12 hours after dosing. The animals were weighed on arrival and on the days of dosing.
In the present studies the test substances were administered subcutaneously in approx 2 nmol/kg dose. The animals received a single subcutaneous injection. The subcutaneous injection was given on the right side of the neck, approximately 5-7 cm from the ear and 7-9 cm from the middle of the neck. The injections were given with a stopper on the needle, allowing approx 0.5 cm of the needle to be introduced. Each test substance was given to typically three but in some cases two or four animals.
A full plasma concentration-time profile, employing 12-16 sampling points, was obtained from each animal. In example blood samples were collected according to the following schedule:
After subcutaneous administration:
Predose (0), 0.5, 1, 2, 4, 6, 8, 12, 24, 48, 72, 96, 120, 168 and 240 hours after injection. In some cases also additional blood samples up to 288 hours post injection were taken.
At each sampling time, 0.5 to 2 ml of blood was drawn from each animal. The blood samples were taken via the central venous catheter.
The blood samples were collected into EDTA test tubes (i.e. Sarstedt Micro tube 1.3 mL K3E). Blood samples were kept on ice for max 20 min. before centrifugation. Plasma was separated using centrifugation (i.e. at 4° C., 10 min., 1500 G) and was immediately transferred to Micronic tubes. Approximately 200 μl plasma was transferred to each Micronic tube. The plasma was stored at −20° C. until assayed. The plasma samples were assayed for the content of amylin using an ELISA assay.
The plasma concentration-time profiles were analysed by a non-compartmental pharmacokinetic analysis (NCA) using WinNonlin Professional 5.0 (Pharsight Inc., Mountain View, Calif., USA). NCA was performed using the individual plasma concentration-time profiles from each animal. T½ is the terminal half-life=ln 2/λz and was determined from λz, the first order rate constant associated with the terminal (log-linear) portion of the curve, estimated by linear regression of time vs. log concentration.
ELISA Plasma Assay for Amylin Quantification
The human amylin ELISA is a monoclonal antibody-based sandwich immunoassay for determining amylin levels in human plasma. The capture antibody recognizes human amylin, amylin acid (deamidated amylin), a 1-20 fragment of amylin, but not reduced amylin.
The detection antibody binds to reduced or unreduced human amylin but not amylin acid and is complexed with streptavidin-alkaline phosphatase. The substrate, 4-methylumbelliferyl phosphate, is applied to the completed sandwich and the fluorescent signal, monitored at 355 nm/460 nm, is proportional to the amount of amylin present in the sample.

Series [2] deals with T1, Amylin 3(a) receptor (human calcitonin receptor (CTa) and RAMP-3) (Homo sapiens, UniProt O60896+P30988).
T1 construct: expressed in transfected cells; host or cells: BHK570 cells, stably transfected with a CRE-luciferase reporter
The series is described as follows: Luciferase assay (III), BHK Amylin 3(a)//CRE-luc cells. Type of series: cell-based. As to conditions: BHK cells with Amylin 3(a) receptor and CRE luciferase reporter, 4 hours incubation; read-out: Potency Luciferase. A digest of the protocol: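 Read-out is CRE-driven luciferase luminescence, taken 30 min after LucLite addition at room temperature. Compounds were incubated 4 h at 37° C in assay medium (10% FBS, 10 mM Hepes, pH 7,4). The cell line is BHK570 co-transfected with human calcitonin receptor CTa and RAMP-3, seeded overnight before use.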
(In general: In a reporter assay the amount or activity of a reporter protein is the signal.)

T1 sequence (O60896 24-148): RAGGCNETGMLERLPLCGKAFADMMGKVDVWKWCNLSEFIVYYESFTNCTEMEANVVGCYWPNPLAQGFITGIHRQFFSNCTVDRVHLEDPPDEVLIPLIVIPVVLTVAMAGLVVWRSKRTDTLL
T1 sequence (P30988 25-474): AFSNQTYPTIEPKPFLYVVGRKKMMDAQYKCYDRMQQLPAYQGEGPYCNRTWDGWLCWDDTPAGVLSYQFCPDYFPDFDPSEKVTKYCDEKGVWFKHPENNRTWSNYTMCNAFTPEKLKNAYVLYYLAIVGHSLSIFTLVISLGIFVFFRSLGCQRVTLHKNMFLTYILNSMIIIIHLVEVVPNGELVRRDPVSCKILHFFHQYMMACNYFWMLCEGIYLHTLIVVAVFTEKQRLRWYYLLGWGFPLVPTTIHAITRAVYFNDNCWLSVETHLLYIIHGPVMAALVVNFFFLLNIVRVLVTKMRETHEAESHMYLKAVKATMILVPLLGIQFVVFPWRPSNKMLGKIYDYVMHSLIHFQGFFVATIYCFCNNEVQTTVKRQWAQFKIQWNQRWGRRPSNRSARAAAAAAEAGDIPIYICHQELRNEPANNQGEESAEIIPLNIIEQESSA

Usually half-life stands for how long it takes for the measured level to halve. `CC[C@H](C)[C@H](NC(=O)[C@@H]1CCCN1C(=O)CNC(=O)[C@H](Cc1ccccc1)NC(=O)[C@H](CC(N)=O)NC(=O)[C@H](CC(N)=O)NC(=O)[C@H](CO)NC(=O)[C@H](CO)NC(=O)[C@H](Cc1c[nH]cn1)NC(=O)[C@H](Cc1c[nH]cn1)NC(=O)[C@H](CC(C)C)NC(=O)[C@H](Cc1ccccc1)NC(=O)[C@H](CC(N)=O)NC(=O)[C@H](C)NC(=O)[C@H](CC(C)C)NC(=O)[C@H](CCCNC(=N)N)NC(=O)[C@H](CCC(N)=O)NC(=O)[C@@H](NC(=O)[C@H](C)NC(=O)[C@@H]1CSSC[C@H](NC(=O)[C@H](Cc2c[nH]cn2)NC(=O)COCCOCCNC(=O)CC[C@H](NC(=O)CCCCCCCCCCCCCCCCCCC(=O)O)C(=O)O)C(=O)N[C@@H](CC(N)=O)C(=O)N[C@@H]([C@@H](C)O)C(=O)N[C@@H](C)C(=O)N[C@@H]([C@@H](C)O)C(=O)N1)[C@@H](C)O)C(=O)N[C@@H](CC(C)C)C(=O)N1CCC[C@H]1C(=O)N1CCC[C@H]1C(=O)N[C@H](C(=O)N[C@@H](CC(N)=O)C(=O)N[C@H](C(=O)NCC(=O)N[C@@H](CO)C(=O)N[C@@H](CC(N)=O)C(=O)N[C@H](C(=O)N[C@@H](Cc1ccc(O)cc1)C(N)=O)[C@@H](C)O)C(C)C)[C@@H](C)O` [Example 37, N-alpha-[2-(2-{2-[4-(S)-Carboxy-4-(19-carboxynonadecanoylamino)butyrylamino]ethoxy}ethoxy)acetyl]-[His1,His17]-pramlintide] ({C20 diacid-γGlu-AEEA}-HCNTATCATQRLANFLHHSSNNFGPILPPTNVGSNTY-NH2; disulfide 2-7) gave a half-life in series [1] of 66 h. In series [2], the EC50 turned out to be 0.09 nM.
As for `CC[C@H](C)[C@H](NC(=O)[C@@H]1CCCN1C(=O)CNC(=O)[C@H](Cc1ccccc1)NC(=O)[C@H](CC(N)=O)NC(=O)[C@H](CC(N)=O)NC(=O)[C@H](CO)NC(=O)[C@H](CO)NC(=O)[C@H](Cc1c[nH]cn1)NC(=O)[C@H](Cc1c[nH]cn1)NC(=O)[C@H](CC(C)C)NC(=O)[C@H](Cc1ccccc1)NC(=O)[C@H](CC(N)=O)NC(=O)[C@H](C)NC(=O)[C@H](CC(C)C)NC(=O)[C@H](CCCNC(=N)N)NC(=O)[C@H](CCC(N)=O)NC(=O)[C@@H](NC(=O)[C@H](C)NC(=O)[C@@H]1CSSC[C@H](NC(=O)[C@H](CCCCN)NC(=O)[C@H](CCCNC(=N)N)NC(=O)[C@H](Cc2c[nH]cn2)NC(=O)CC[C@H](NC(=O)CCCCCCCCCCCCCCCCCCC(=O)O)C(=O)O)C(=O)N[C@@H](CC(N)=O)C(=O)N[C@@H]([C@@H](C)O)C(=O)N[C@@H](C)C(=O)N[C@@H]([C@@H](C)O)C(=O)N1)[C@@H](C)O)C(=O)N[C@@H](CC(C)C)C(=O)N1CCC[C@H]1C(=O)N1CCC[C@H]1C(=O)N[C@H](C(=O)N[C@@H](CC(N)=O)C(=O)N[C@H](C(=O)NCC(=O)N[C@@H](CO)C(=O)N[C@@H](CC(N)=O)C(=O)N[C@H](C(=O)N[C@@H](Cc1ccc(O)cc1)C(N)=O)[C@@H](C)O)C(C)C)[C@@H](C)O` [Example 40, N-alpha-[(S)-4-Carboxy-4-(19-carboxynonadecanoylamino)butyryl]-His-Arg-[His17]-pramlintide] ({C20 diacid-γGlu}-HRKCNTATCATQRLANFLHHSSNNFGPILPPTNVGSNTY-NH2; disulfide 4-9), in series [1], the half-life was 31 h. Besides, the EC50 in series [2] worked out at 0.1 nM.
Take `CC[C@H](C)[C@H](NC(=O)[C@@H]1CCCN1C(=O)CNC(=O)[C@H](Cc1ccccc1)NC(=O)[C@H](CC(N)=O)NC(=O)[C@H](CC(N)=O)NC(=O)[C@H](CO)NC(=O)[C@H](CO)NC(=O)[C@H](Cc1c[nH]cn1)NC(=O)[C@H](Cc1c[nH]cn1)NC(=O)[C@H](CC(C)C)NC(=O)[C@H](Cc1ccccc1)NC(=O)[C@H](CC(N)=O)NC(=O)[C@H](C)NC(=O)[C@H](CC(C)C)NC(=O)[C@H](CCCNC(=N)N)NC(=O)[C@H](CCC(N)=O)NC(=O)[C@@H](NC(=O)[C@H](C)NC(=O)[C@@H]1CSSC[C@H](NC(=O)[C@H](Cc2c[nH]cn2)NC(=O)[C@H](Cc2c[nH]cn2)NC(=O)[C@H](Cc2c[nH]cn2)NC(=O)[C@H](CCC(=O)O)NC(=O)CC[C@H](NC(=O)CCCCCCCCCCCCCCCCCCC(=O)O)C(=O)O)C(=O)N[C@@H](CC(N)=O)C(=O)N[C@@H]([C@@H](C)O)C(=O)N[C@@H](C)C(=O)N[C@@H]([C@@H](C)O)C(=O)N1)[C@@H](C)O)C(=O)N[C@@H](CC(C)C)C(=O)N1CCC[C@H]1C(=O)N1CCC[C@H]1C(=O)N[C@H](C(=O)N[C@@H](CC(N)=O)C(=O)N[C@H](C(=O)NCC(=O)N[C@@H](CO)C(=O)N[C@@H](CC(N)=O)C(=O)N[C@H](C(=O)N[C@@H](Cc1ccc(O)cc1)C(N)=O)[C@@H](C)O)C(C)C)[C@@H](C)O` [Example 54, N-alpha-[(S)-4-Carboxy-4-(19-carboxynonadecanoylamino)butyryl]-Glu-His-His-[His1,His17]-pramlintide] ({C20 diacid-γGlu}-EHHHCNTATCATQRLANFLHHSSNNFGPILPPTNVGSNTY-NH2; disulfide 5-10): in series [1], the half-life was 53 h. The EC50 in series [2] turned out to be 0.1 nM.
In turn, `CC[C@H](C)[C@H](NC(=O)[C@@H]1CCCN1C(=O)CNC(=O)[C@H](Cc1ccccc1)NC(=O)[C@H](CC(N)=O)NC(=O)[C@H](CC(N)=O)NC(=O)[C@H](CO)NC(=O)[C@H](CO)NC(=O)[C@H](Cc1c[nH]cn1)NC(=O)[C@H](Cc1c[nH]cn1)NC(=O)[C@H](CC(C)C)NC(=O)[C@H](Cc1ccccc1)NC(=O)[C@H](CC(N)=O)NC(=O)[C@H](C)NC(=O)[C@H](CC(C)C)NC(=O)[C@H](CCCNC(=N)N)NC(=O)[C@H](CCC(N)=O)NC(=O)[C@@H](NC(=O)[C@H](C)NC(=O)[C@@H]1CSSC[C@H](NC(=O)[C@H](CCCNC(=N)N)NC(=O)[C@H](CCCNC(=N)N)NC(=O)[C@H](Cc2c[nH]cn2)NC(=O)[C@H](CCC(=O)O)NC(=O)CC[C@H](NC(=O)CCCCCCCCCCCCCCCCCCC(=O)O)C(=O)O)C(=O)N[C@@H](CC(N)=O)C(=O)N[C@@H]([C@@H](C)O)C(=O)N[C@@H](C)C(=O)N[C@@H]([C@@H](C)O)C(=O)N1)[C@@H](C)O)C(=O)N[C@@H](CC(C)C)C(=O)N1CCC[C@H]1C(=O)N1CCC[C@H]1C(=O)N[C@H](C(=O)N[C@@H](CC(N)=O)C(=O)N[C@H](C(=O)NCC(=O)N[C@@H](CO)C(=O)N[C@@H](CC(N)=O)C(=O)N[C@H](C(=O)N[C@@H](Cc1ccc(O)cc1)C(N)=O)[C@@H](C)O)C(C)C)[C@@H](C)O` [Example 55, N-alpha-[(S)-4-Carboxy-4-(19-carboxynonadecanoylamino)butyryl]-Glu-His-Arg-[Arg1,His17]-pramlintide] ({C20 diacid-γGlu}-EHRRCNTATCATQRLANFLHHSSNNFGPILPPTNVGSNTY-NH2; disulfide 5-10) gave a half-life in series [1] of 38 h. For the same molecule, the EC50 in series [2] is 0.2 nM.
